Experimental data as given in patent publication US20130204033A1, “ANTIPROLIFERATIVE COMPOUNDS, CONJUGATES THEREOF, METHODS THEREFOR, AND USES THEREOF” (Medarex, Inc., priority 2009, published 2013).
Where two headings read alike, the source gives them in different places.

How the values were obtained:
Format in all cases: cell-based, human
[1] = tested on: A549; assay: 3H thymidine proliferation assay, A549
Description: (§1) This example generally describes the procedures used to assay the antiproliferative activity of compounds of this invention or their conjugates. Human tumor cell lines were obtained from the American Type Culture Collection (ATCC), P.O. Box 1549, Manassas, Va. 20108, USA, and cultured according to instruction from the ATCC. Cells were seeded at 1.0×10^3 or 1.0×10^4 cells/well in 96-well plates for 3 h for ATP assays or ^3H thymidine assays, respectively. 1:3 serial dilutions of free (unconjugated) compounds or their conjugates were added to the wells. Plates were allowed to incubate for 24 to 72 h. The ^3H thymidine plates were pulsed with 1.0 μCi of ^3H-thymidine per well for the last 24 hours of the total incubation period, harvested, and read on a Top Count Scintillation Counter (Packard Instruments, Meriden, Conn.). ATP levels in the ATP plates were measured using the […]-GLO® Luminescent Cell Viability kit following the manufacturer's manual and read on a GLOMAX® 20/20 luminometer (both from Promega, Madison, Wis., USA). The EC50 values—the concentration at which an agent inhibits or reduces cell proliferation by 50% —were determined using PRISM™ software, version 4.0 (GraphPad Software, La Jolla, Calif., USA).
(§2) Using the ^3H thymidine or the ATP luminescence assay, or both, the activities of compounds of this invention were assayed against the following cancer cell lines: HCT-15 (colorectal cancer, multi-drug resistant (MDR)); Hep3B (liver cancer); LNCaP (prostate cancer, androgen receptor positive (AR^+)); MDA-MB-231 (breast cancer, estrogen receptor, progesterone receptor, and Her2 negative (triple negative)); A2058 (melanoma); U-87 MG (glioblastoma); NCI-H460 (NSCLC); A549 (NSCLC); HPAC (pancreatic cancer, primary); PC3 (prostate cancer, AR); BT474 (breast cancer, Her2 highly positive (Her2hi)); SKOV3 (ovarian cancer, Her2hi); 786-O (renal cancer); UO-31 (renal cancer, MDR); NCI-H740 (SCLC); DMS53 (SCLC); SK-BR3 (breast cancer, Her2hi); ZR-75 (breast cancer, estrogen receptor positive); OVCAR3 (ovarian cancer); HL-60 (APL); OVCAR8/Adr (ovarian cancer, MDR); CEM-Cl (ALL); Nomo-1 (AML); RPMI-8226 (MM)); Raji (lymphoma); SW-480 (colorectal cancer, metastatic); SW-620 (colorectal cancer); and H226 (lung cancer). (Not all compounds were assayed against all cell lines.)
(§3) Table 2 provides the data for proliferation assays using the ^3H thymidine method, with an incubation period of 72 h.

[2] = tested on: LNCaP; assay: 3H thymidine proliferation assay, LNCaP
Description: as §1, §2, §3

[3] = tested on: HL-60; assay: 3H thymidine proliferation assay, HL-60
Description: as §1, §2, §3

[4] = tested on: BT474; assay: ATP luminescence proliferation assay, BT474
Description: as §1, §2
(§4) Table 3 provides the data for the ATP luminescence proliferation assays, with an incubation period of 48, 72, or 96 h, as noted.

[5] = tested on: BT474; assay: 3H thymidine proliferation assay, BT474
Description: as §1, §2, §3

[6] = tested on: OVCAR8; assay: 3H thymidine proliferation assay, OVCAR8
Description: as §1, §2, §3

[7] = tested on: SKOV3; assay: 3H thymidine proliferation assay, SKOV3
Description: as §1, §2, §3

[8] = tested on: Nomo-1; assay: ATP luminescence proliferation assay, Nomo-1
Description: as §1, §2, §4

[9] = tested on: Hep3B; assay: 3H thymidine proliferation assay, Hep3B
Description: as §1, §2, §3

[10] = tested on: MDA-MB-231; assay: ATP luminescence proliferation assay, MDA-MB-231
Description: as §1, §2, §4

[11] = tested on: A549; assay: ATP luminescence proliferation assay, A549
Description: as §1, §2, §4

[12] = tested on: LNCaP; assay: ATP luminescence proliferation assay, LNCaP
Description: as §1, §2, §4

[13] = Homo sapiens, A549, read-out: EC50, A549, 3H thymidine method, 72 h incubation
[14] = Homo sapiens, LNCaP, read-out: EC50, LNCaP, 3H thymidine method, 72 h incubation
[15] = Homo sapiens, HL-60, read-out: EC50, HL-60, 3H thymidine method, 72 h incubation
[16] = Homo sapiens, BT-474, 48 h, read-out: EC50 BT474 (48 h), ATP luminescence, BT474, 48 h incubation
[17] = Homo sapiens, BT-474, read-out: EC50, BT474, 3H thymidine method, 72 h incubation
[18] = Homo sapiens, OVCAR-8, read-out: EC50, OVCAR8, 3H thymidine method, 72 h incubation
[19] = Homo sapiens, SK-OV-3, read-out: EC50, SKOV3, 3H thymidine method, 72 h incubation
[20] = Homo sapiens, NOMO-1, 72 h, read-out: EC50 Nomo-1 (72 h), ATP luminescence, Nomo-1, 72 h incubation
[21] = Homo sapiens, Hep3B, read-out: EC50, Hep3B, 3H thymidine method, 72 h incubation
[22] = Homo sapiens, MDA-MB-231, 72 h, read-out: EC50 MDA-MB-231 (72 h), ATP luminescence, MDA-MB-231, 72 h incubation
[23] = 3H thymidine method, 72 h incubation, read-out: EC50, A549
[24] = 3H thymidine method, 72 h incubation, read-out: EC50, LNCaP
[25] = 3H thymidine method, 72 h incubation, read-out: EC50, HL-60
[26] = ATP luminescence, BT474, 48 h incubation, read-out: EC50 BT474 (48 h)
[27] = 3H thymidine method, 72 h incubation, read-out: EC50, BT474
[28] = 3H thymidine method, 72 h incubation, read-out: EC50, OVCAR8
[29] = 3H thymidine method, 72 h incubation, read-out: EC50, SKOV3
[30] = ATP luminescence, Nomo-1, 72 h incubation, read-out: EC50 Nomo-1 (72 h)
[31] = 3H thymidine method, 72 h incubation, read-out: EC50, Hep3B
[32] = ATP luminescence, MDA-MB-231, 72 h incubation, read-out: EC50 MDA-MB-231 (72 h)
[33] = Homo sapiens, NOMO-1, 48 h, read-out: EC50 Nomo-1 (48 h), ATP luminescence, Nomo-1, 48 h incubation
[34] = Homo sapiens, MDA-MB-231, 48 h, read-out: EC50 MDA-MB-231 (48 h), ATP luminescence, MDA-MB-231, 48 h incubation
[35] = ATP luminescence, Nomo-1, 48 h incubation, read-out: EC50 Nomo-1 (48 h)
[36] = ATP luminescence, MDA-MB-231, 48 h incubation, read-out: EC50 MDA-MB-231 (48 h)

Row | SMILES | EC50 [1, 13] | EC50 [2, 14] | EC50 [3, 15] | EC50 [4, 16] | EC50 [5, 17] | EC50 [6, 18] | EC50 [7, 19] | EC50 [9, 21] | EC50 [1, 23] | EC50 [2, 24] | EC50 [3, 25] | EC50 [4, 26] | EC50 [5, 27] | EC50 [6, 28] | EC50 [7, 29] | EC50 [8, 30] | EC50 [9, 31] | further results
1 | CC[C@H](C)[C@H](NC(=O)[C@H]1CCCCN1C)C(=O)N(C)[C@H](C[C@@H](OC)c1nc(C(=O)N[C@@H](Cc2ccccc2)C(=O)N[C@@H](C)C(=O)OC)cs1)C(C)C [Compound 24] | 38 nM | 76 nM | 6.9 nM | 4.6 nM | > 100 nM | > 100 nM | 68 nM | 32 nM | – | – | – | – | – | – | – | – | – | EC50 [8, 20]: 4 nM; EC50 [10, 22]: 13 nM
2 | CCC[C@H](NC(=O)[C@H](Cc1ccccc1)NC(=O)c1csc([C@@H](C[C@H](C(C)C)N(C)C(=O)[C@@H](NC(=O)[C@H]2CCCCN2C)[C@@H](C)CC)OC)n1)C(=O)OC [Compound 19] | – | – | – | – | – | – | – | – | > 100 nM | > 100 nM | 37 nM | 8.8 nM | > 100 nM | 69 nM | > 100 nM | 5.2 nM | 52 nM | EC50 [10, 32]: 32 nM
3 | CC[C@H](C)[C@H](NC(=O)[C@H]1CCCCN1C)C(=O)N(C)[C@H](C[C@@H](OC)c1nc(C(=O)N[C@@H](Cc2ccc(N)cc2)CC(C)C(=O)O)cs1)C(C)C (stereo partly drawn) [Compound 51] | – | – | – | – | – | – | – | – | 7.8 nM | 41 nM | 4.2 nM | 11 nM | 30 nM | 20 nM | 4.4 nM | 7.4 nM | 4.2 nM | –
4 | CC[C@H](C)[C@H](NC(=O)[C@H]1CCCCN1C)C(=O)N(C)[C@H](C[C@@H](OC)c1nc(C(=O)N[C@H](CC(=O)OC)Cc2ccccc2)cs1)C(C)C [Compound 25] | 270 nM | 930 nM | 308 nM | 166 nM | 804 nM | 946 nM | 180 nM | 305 nM | – | – | – | – | – | – | – | – | – | EC50 ([11]; Homo sapiens, A549, 48 h, read-out: EC50 A549 (48 h), ATP luminescence, A549, 48 h incubation): 111 nM; EC50 [8, 33]: 83 nM; EC50 [10, 22]: 202 nM
5 | CC[C@H](C)[C@H](NC(=O)[C@H]1CCCCN1C)C(=O)N(C)[C@H](C[C@@H](OC)c1nc(C(=O)NC(Cc2ccccc2)C[C@H](C)C(=O)O)cs1)C(C)C (stereo partly drawn) [Compound 15] | 2.1 nM | 27 nM | 0.6 nM | 3.5 nM | 7.1 nM | 423 nM | 2.6 nM | 1.6 nM | – | – | – | – | – | – | – | – | – | EC50 [8, 20]: 2.7 nM; EC50 [10, 34]: 5.6 nM
6 | CCCC(NC(=O)c1csc([C@@H](C[C@H](C(C)C)N(C)C(=O)[C@@H](NC(=O)[C@H]2CCCCN2C)[C@@H](C)CC)OC)n1)C(=O)OC (stereo partly drawn) [Compound 17] | > 100 nM | > 100 nM | 17 nM | 23 nM | > 100 nM | 2970 nM | 91 nM | > 100 nM | – | – | – | – | – | – | – | – | – | EC50 [8, 20]: 3.9 nM; EC50 [10, 34]: 65 nM
7 | CC[C@H](C)[C@H](NC(=O)[C@H]1CCCCN1C)C(=O)N(COC(=O)CC(C)C)[C@H](C[C@@H](OC(C)=O)c1nc(C(=O)N[C@@H](Cc2ccccc2)C(=O)OC)cs1)C(C)C [Compound 29] | – | – | – | – | – | – | – | – | 0.44 nM | 0.54 nM | 0.0099 nM | 1.5 nM | 0.57 nM | 0.7 nM | 0.029 nM | – | 0.041 nM | EC50 ([11]; ATP luminescence, A549, 48 h incubation, read-out: EC50 A549 (48 h)): 3.9 nM; EC50 [8, 35]: 0.24 nM; EC50 [10, 32]: 5.1 nM
8 | CC[C@H](C)[C@H](NC(=O)[C@H]1CCCCN1C)C(=O)N(COC(=O)CC(C)C)[C@H](C[C@@H](O)c1nc(C(=O)N[C@@H](Cc2ccccc2)C(=O)OC)cs1)C(C)C [Compound 28] | – | – | – | – | – | – | – | – | > 100 nM | 64 nM | 7.7 nM | 12 nM | > 100 nM | 27 nM | 9.9 nM | 0.82 nM | 24 nM | EC50 [10, 32]: 16 nM
9 | CC[C@H](C)[C@H](NC(=O)[C@H]1CCCCN1C)C(=O)N(COC)[C@H](C[C@@H](OC)c1nc(C(=O)N[C@@H](Cc2ccccc2)C(=O)OC)cs1)C(C)C [Compound 29c] | – | – | – | – | – | – | – | – | 6.5 nM | 5.2 nM | 1.8 nM | 492 nM | 12 nM | 1.4 nM | 1.9 nM | – | 3 nM | EC50 ([12]; ATP luminescence, 72 h incubation, read-out: EC50 LNCaP (72 h)): 255 nM; EC50 [8, 35]: 2.9 nM; EC50 [10, 36]: 52 nM
10 | CC[C@H](C)[C@H](NC(=O)[C@H]1CCCCN1C)C(=O)N(C)[C@H](C[C@@H](OC)c1nc(C(=O)N[C@@H](Cc2ccccc2)C(=O)OC)cs1)C(C)C [Compound 16] | – | – | – | – | – | – | – | – | > 100 nM | > 100 nM | 8.9 nM | 19 nM | > 100 nM | 1870 nM | 44 nM | 3.1 nM | > 100 nM | EC50 [10, 36]: 28 nM
11 | CC[C@H](C)[C@H](NC(=O)[C@H]1CCCCN1C)C(=O)N(C)[C@H](C[C@@H](OC)c1nc(C(=O)N[C@H](CCC(=O)OC)Cc2ccccc2)cs1)C(C)C [Compound 26] | 18 nM | > 3000 nM | 0.45 nM | 19 nM | 11 nM | 201 nM | 4.6 nM | 18 nM | – | – | – | – | – | – | – | – | – | EC50 ([12]; Homo sapiens, 72 h, read-out: EC50 LNCaP (72 h), ATP luminescence, LNCaP, 72 h incubation): 412 nM; EC50 [8, 33]: 3.9 nM; EC50 [10, 34]: 120 nM
12 | CC[C@H](C)[C@H](NC(=O)[C@H]1CCCCN1C)C(=O)N(C)[C@H](C[C@@H](OC(C)=O)c1nc(C(=O)N[C@@H](Cc2ccc(N)cc2)C(=O)O)cs1)C(C)C [Compound 56] | – | – | – | – | – | – | – | – | > 100 nM | > 100 nM | > 100 nM | > 100 nM | > 100 nM | > 3000 nM | > 100 nM | > 100 nM | > 100 nM | EC50 [10, 36]: > 100 nM
